Patent US11034648B2, “Cystobactamide derivatives” (priority 2017, dated 2021)
≈ marks a conversion by molar mass, not a printed value.

Columns and labels:
Type in all cases: cell-based
[1] = tested on: E. coli WT-III [marRΔ74bp]; settings: fluoroquinolone-resistant mutant; Table 2a
Protocol: (§1) Cystobactamid derivatives synthesized were tested against relevant Gram negative and positive bacteria of clinical interest. Experimental procedures used for the biological characterization of the compounds are the same as previously described in WO 2016/082934.
(§2) Bacterial strains used in susceptibility assays (minimum inhibitory concentration, MIC) were either part of our internal strain collection or purchased from the German Collection of Microorganisms and Cell Cultures (Deutsche Sammlung von Mikroorganismen und Zellkulturen, DSMZ) and the American Type Culture Collection (ATCC). The susceptible E. coli strain (WT) and fluoroquinolone-resistant mutants E. coli WT-3 and WT-III were kindly provided by Prof Dr. P. Heisig, Pharmaceutical Biology and Microbiology, University of Hamburg, Germany. The efflux-deficient strain P. aeruginosa ΔmexAB was kindly provided by Prof Dr. S. Häußler, Institute for Molecular Bacteriology, TWINCORE, Hannover, Germany. All compounds were prepared as DMSO stocks and MIC values were determined in standard microbroth dilution assays in 96-well MTPs as described in Baumann et al., Angew Chem Int Ed Engl. 2014; 53(52):14605-9. In brief, overnight cultures of bacteria were diluted in either tryptic soy broth (TSB: 1.7% peptone casein, 0.3% peptone soymeal, 0.25% glucose, 0.5% NaCl, 0.25% K2HPO4; pH 7.3; S. pneumoniae and E. faecalis) or cation-adjusted Müller-Hinton Broth (BBL™, BD; all other bacteria) and adjusted to 10^4-10^6 cfu/mL. Bacteria were grown in the presence of the derivatives in serial dilution for approx. 16 h at 30-37° C. MIC values were determined and were defined as the antibiotic concentration at which no visual growth of bacteria was observed.

[2] = tested on: E. coli WT-3 [gyrA(S83L,D87G)]; experiment: microbe, parasite or virus in culture; settings: Escherichia coli, read-out: MIC E. coli WT-3 [gyrA(S83L,D87G)]
In short: (§3)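 First, overnight cultures were diluted into cation-adjusted Müller-Hinton broth at 10^4-10^6 cfu/mL. Next, they were exposed to serial compound dilutions for approx. 16 h at 30-37° C. Finally, wells were inspected visually and the MIC assigned where growth was absent.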

P. aeruginosa ΔmexAB = experiment: microbe, parasite or virus in culture; settings: Pseudomonas aeruginosa, 16 h, read-out: MIC P. aeruginosa ΔmexAB, efflux-deficient strain; small panel, Tables 1a/1b
In short: as §3

E. coli ΔtolC = experiment: microbe, parasite or virus in culture; settings: Escherichia coli, 16 h, read-out: MIC E. coli ΔtolC, small panel, Tables 1a/1b; no visual growth after approx. 16 h
In short: as §3

S. aureus ATCC-29213 = experiment: MIC, microbroth dilution susceptibility assay; settings: Staphylococcus aureus, ATCC29213; large panel, Table 2a
In short: as §3

C. freundii DSM-30039 = experiment: MIC, microbroth dilution susceptibility assay; settings: Citrobacter freundii, DSM30039; large panel, Table 2a
In short: as §3

E. aerogenes DSM-30053 = experiment: MIC, microbroth dilution susceptibility assay; settings: Klebsiella aerogenes, DSM30053; large panel, Table 2a
In short: as §3

E. coli WT = experiment: MIC, microbroth dilution susceptibility assay; settings: Escherichia coli
In short: as §3

P. vulgaris DSM-2140 = experiment: MIC, microbroth dilution susceptibility assay; settings: Proteus vulgaris, DSM2140; large panel, Table 2a
In short: as §3

S. epidermidis DSM-28765 = experiment: MIC, microbroth dilution susceptibility assay; settings: Staphylococcus epidermidis, DSM28765; large panel, Table 2a
In short: as §3

E. coli WT DSM-1116 = experiment: MIC, microbroth dilution susceptibility assay; settings: Escherichia coli, DSM1116; small panel, Tables 1a/1b; no visual growth after approx. 16 h; read-out: MIC E. coli WT DSM-1116
In short: as §3

P. mirabilis DSM-2140 = experiment: MIC, microbroth dilution susceptibility assay; settings: Proteus mirabilis, DSM2140; large panel, Table 2a
In short: as §3

E. faecalis ATCC-29212 = experiment: MIC, microbroth dilution susceptibility assay; settings: Enterococcus faecalis, ATCC29212; large panel, Table 2a; TSB
In short: as §3

S. marcescens DSM-30121 = experiment: MIC, microbroth dilution susceptibility assay; settings: Serratia marcescens, DSM30121; large panel, Table 2a
In short: as §3

A. baumannii DSM-30008 = experiment: MIC, microbroth dilution susceptibility assay; settings: Acinetobacter baumannii, DSM30008; large panel, Table 2a
In short: as §3

S. pneumoniae DSM-20566 = experiment: MIC, microbroth dilution susceptibility assay; settings: Streptococcus pneumoniae, DSM20566; large panel, Table 2a; TSB
In short: as §3

K. pneumoniae DSM-30104 = experiment: MIC, microbroth dilution susceptibility assay; settings: Klebsiella pneumoniae, DSM30104; large panel, Table 2a
In short: as §3

P. aeruginosa WT PA14 = experiment: MIC, microbroth dilution susceptibility assay; settings: Pseudomonas aeruginosa, PA14, small panel, Tables 1a/1b; read-out: MIC P. aeruginosa WT PA14
In short: as §3

S. aureus Newman = experiment: MIC, microbroth dilution susceptibility assay; settings: Staphylococcus aureus, NEWMAN; small panel, Tables 1a/1b; read-out: MIC S. aureus Newman
In short: as §3

P. aeruginosa DSM-24600 = experiment: MIC, microbroth dilution susceptibility assay; settings: Pseudomonas aeruginosa, DSM24600; large panel, Table 2a
In short: as §3

E. cloacae DSM-30054 = experiment: MIC, microbroth dilution susceptibility assay; settings: Enterobacter cloacae, DSM30054; large panel, Table 2a
In short: as §3

P. aeruginosa DSM-46316 = experiment: MIC, microbroth dilution susceptibility assay; settings: Pseudomonas aeruginosa, DSM46316; large panel, Table 2a
In short: as §3

P. aeruginosa ESBL 1 = experiment: MIC, microbroth dilution susceptibility assay (Table 2b); settings: Pseudomonas aeruginosa, ESBL1, larger panel
Protocol: as §1, §2

S. epidermidis = experiment: as above; settings: Staphylococcus epidermidis, larger panel
Protocol: as §1, §2

C. freundii = experiment: as above; settings: Citrobacter freundii, larger panel
Protocol: as §1, §2

K. pneumoniae = experiment: as above; settings: Klebsiella pneumoniae, larger panel
Protocol: as §1, §2

E. faecalis = experiment: as above; settings: Enterococcus faecalis, larger panel
Protocol: as §1, §2

E. cloacae = experiment: as above; settings: Enterobacter cloacae, larger panel
Protocol: as §1, §2

E. aerogenes = experiment: as above; settings: Klebsiella aerogenes, larger panel
Protocol: as §1, §2

A. baumannii = experiment: as above; settings: Acinetobacter baumannii, larger panel
Protocol: as §1, §2

P. aeruginosa ESBL 2 = experiment: as above; settings: Pseudomonas aeruginosa, ESBL2, larger panel
Protocol: as §1, §2

S. marcescens = experiment: as above; settings: Serratia marcescens, larger panel
Protocol: as §1, §2

P. mirabilis = experiment: as above; settings: Proteus mirabilis, larger panel
Protocol: as §1, §2

P. vulgaris = experiment: as above; settings: Proteus vulgaris, larger panel
Protocol: as §1, §2

For `CC(C)Oc1c(NC(=O)c2ccc(NC(=O)[C@H](CC(N)=O)NC(=O)c3ccc(NC(=O)c4ccc(C#N)cc4)cc3)cc2)ccc(C(=O)Nc2ccc(C(=O)O)cc2)c1O` [Compound 44, (S)-4-(4-(4-(4-amino-2-(4-(4-cyanobenzamido)benzamido)-4-oxobutanamido)benzamido)-2-hydroxy-3-isopropoxybenzamido)benzoic acid], the “MIC E. coli WT-III [marRΔ74bp]” value [1] was 0.25 µg/mL (≈ 0.308 µM), the MIC [2] was 0.13 µg/mL (≈ 0.16 µM) and the MIC (P. aeruginosa ΔmexAB) was 0.25 µg/mL (≈ 0.308 µM). The MIC (E. coli ΔtolC) was 0.06 µg/mL (≈ 0.0739 µM), the MIC (S. aureus ATCC-29213) was 0.5 µg/mL (≈ 0.616 µM) and the MIC (C. freundii DSM-30039) was less than 0.03 µg/mL. For the same compound, the MIC (E. aerogenes DSM-30053) was 1 µg/mL (≈ 1.23 µM), the MIC (E. coli WT; large panel, Table 2a) was 0.25 µg/mL (≈ 0.308 µM) and the MIC (E. coli WT; larger panel, Table 2b) was 0.25 µg/mL (≈ 0.308 µM). For the same compound, the MIC (P. vulgaris DSM-2140) was 0.25 µg/mL (≈ 0.308 µM), the MIC (S. epidermidis DSM-28765) was 0.06 µg/mL (≈ 0.0739 µM) and the MIC (E. coli WT DSM-1116) was 0.5 µg/mL (≈ 0.616 µM). For the same compound, the MIC (P. mirabilis DSM-2140) was 64 µg/mL (≈ 78.8 µM), the MIC (E. faecalis ATCC-29212) was 0.5 µg/mL (≈ 0.616 µM) and the MIC (S. marcescens DSM-30121) was greater than 64 µg/mL. The MIC (A. baumannii DSM-30008) was 1 µg/mL (≈ 1.23 µM), the MIC (S. pneumoniae DSM-20566) was 0.13 µg/mL (≈ 0.16 µM) and the MIC (K. pneumoniae DSM-30104) was 0.5 µg/mL (≈ 0.616 µM). The MIC (P. aeruginosa WT PA14) was 2 µg/mL (≈ 2.46 µM), the MIC (S. aureus Newman) was 0.25 µg/mL (≈ 0.308 µM) and the MIC (P. aeruginosa DSM-24600) was greater than 64 µg/mL. The MIC (E. cloacae DSM-30054) was 0.25 µg/mL (≈ 0.308 µM), the MIC (P. aeruginosa DSM-46316) was 2 µg/mL (≈ 2.46 µM) and the MIC (P. aeruginosa ESBL 1) was 4 µg/mL (≈ 4.93 µM). It also gave an MIC (S. epidermidis) of less than 0.03 µg/mL, an MIC (C. freundii) of less than 0.03 µg/mL and an MIC (K. pneumoniae) of 0.5 µg/mL (≈ 0.616 µM). For the same compound, the MIC (E. faecalis) was 0.5 µg/mL (≈ 0.616 µM), the MIC (E. cloacae) was 0.25 µg/mL (≈ 0.308 µM) and the MIC (E. aerogenes) was 0.06 µg/mL (≈ 0.0739 µM). It also gave an MIC (A. baumannii) of 1 µg/mL (≈ 1.23 µM), an MIC (P. aeruginosa ESBL 2) of 4 µg/mL (≈ 4.93 µM) and an MIC (S. marcescens) greater than 64 µg/mL. The MIC (P. mirabilis) was greater than 64 µg/mL and the MIC (P. vulgaris) was 0.25 µg/mL (≈ 0.308 µM).
